# Numbers after ± are expanded uncertainties.
# Assays:
# [1] = xn = mol fraction of the nth substance listed; details: 101.32 kPa, Liquid, Vibrating tube method
# [2] = excess molar enthalpy (molar enthalpy of mixing); xn = mol fraction of the nth substance listed; details: 101 kPa, Liquid, Calvet calorimetry
compound,measurement,setting,value
CCOC(C)=O [ethyl acetate] + CCCCCC,mass density,"[1]; 291.15 K, x1 = 0.0165",663.7 ± 0.82 kg/m3
same,mass density,"[1]; 291.15 K, x1 = 0.0655",671.62 ± 0.84 kg/m3
same,mass density,"[1]; 291.15 K, x1 = 0.1077",678.72 ± 0.88 kg/m3
same,mass density,"[1]; 291.15 K, x1 = 0.1823",692.02 ± 0.9 kg/m3
same,mass density,"[1]; 291.15 K, x1 = 0.1962",694.54 ± 0.9 kg/m3
same,mass density,"[1]; 291.15 K, x1 = 0.2716",709.09 ± 0.97 kg/m3
same,mass density,"[1]; 291.15 K, x1 = 0.3518",725.37 ± 1 kg/m3
same,mass density,"[1]; 291.15 K, x1 = 0.4166",739.37 ± 1.1 kg/m3
same,mass density,"[1]; 291.15 K, x1 = 0.5519",770.91 ± 1.1 kg/m3
same,mass density,"[1]; 291.15 K, x1 = 0.6225",788.69 ± 1.2 kg/m3
same,mass density,"[1]; 291.15 K, x1 = 0.6795",803.74 ± 1.3 kg/m3
same,mass density,"[1]; 291.15 K, x1 = 0.7429",821.35 ± 1.3 kg/m3
same,mass density,"[1]; 291.15 K, x1 = 0.8048",839.41 ± 1.4 kg/m3
same,mass density,"[1]; 291.15 K, x1 = 0.898",868.3 ± 1.4 kg/m3
same,mass density,"[1]; 291.15 K, x1 = 0.9604",888.98 ± 1.5 kg/m3
same,mass density,"[1]; 291.15 K, x1 = 0.9833",896.93 ± 1.6 kg/m3
same,mass density,"[1]; 291.15 K, x1 = 1",902.88 ± 0.73 kg/m3
same,mass density,"[1]; 298.15 K, x1 = 0.0704",666.2 ± 0.84 kg/m3
same,mass density,"[1]; 298.15 K, x1 = 0.127",675.7 ± 0.87 kg/m3
same,mass density,"[1]; 298.15 K, x1 = 0.193",687.4 ± 0.9 kg/m3
same,mass density,"[1]; 298.15 K, x1 = 0.2383",695.9 ± 0.93 kg/m3
same,mass density,"[1]; 298.15 K, x1 = 0.2909",706.1 ± 0.97 kg/m3
same,mass density,"[1]; 298.15 K, x1 = 0.3466",717.4 ± 1 kg/m3
same,mass density,"[1]; 298.15 K, x1 = 0.444",738.3 ± 1 kg/m3
same,mass density,"[1]; 298.15 K, x1 = 0.4935",749.5 ± 1.1 kg/m3
same,mass density,"[1]; 298.15 K, x1 = 0.5355",759.4 ± 1.1 kg/m3
same,mass density,"[1]; 298.15 K, x1 = 0.5869",772 ± 1.2 kg/m3
same,mass density,"[1]; 298.15 K, x1 = 0.6255",781.8 ± 1.2 kg/m3
same,mass density,"[1]; 298.15 K, x1 = 0.7012",801.9 ± 1.2 kg/m3
same,mass density,"[1]; 298.15 K, x1 = 0.7532",816.4 ± 1.3 kg/m3
same,mass density,"[1]; 298.15 K, x1 = 0.8292",838.8 ± 1.4 kg/m3
same,mass density,"[1]; 298.15 K, x1 = 0.8612",848.7 ± 1.4 kg/m3
same,mass density,"[1]; 298.15 K, x1 = 0.9233",868.5 ± 1.5 kg/m3
same,mass density,"[1]; 298.15 K, x1 = 0.9469",876.3 ± 1.5 kg/m3
same,mass density,"[1]; 298.15 K, x1 = 1",894.4 ± 0.72 kg/m3
same,mass density,"[1]; 318.15 K, x1 = 0.0336",641.5 ± 0.79 kg/m3
same,mass density,"[1]; 318.15 K, x1 = 0.0764",648.1 ± 0.82 kg/m3
same,mass density,"[1]; 318.15 K, x1 = 0.1448",659.3 ± 0.86 kg/m3
same,mass density,"[1]; 318.15 K, x1 = 0.2606",679.9 ± 0.93 kg/m3
same,mass density,"[1]; 318.15 K, x1 = 0.276",682.8 ± 0.93 kg/m3
same,mass density,"[1]; 318.15 K, x1 = 0.3316",693.5 ± 0.97 kg/m3
same,mass density,"[1]; 318.15 K, x1 = 0.3976",707 ± 1 kg/m3
same,mass density,"[1]; 318.15 K, x1 = 0.4495",718.1 ± 1 kg/m3
same,mass density,"[1]; 318.15 K, x1 = 0.5054",730.6 ± 1.1 kg/m3
same,mass density,"[1]; 318.15 K, x1 = 0.5551",742.2 ± 1.1 kg/m3
same,mass density,"[1]; 318.15 K, x1 = 0.6085",755.1 ± 1.2 kg/m3
same,mass density,"[1]; 318.15 K, x1 = 0.7048",779.9 ± 1.2 kg/m3
same,mass density,"[1]; 318.15 K, x1 = 0.7523",792.9 ± 1.3 kg/m3
same,mass density,"[1]; 318.15 K, x1 = 0.7984",806 ± 1.3 kg/m3
same,mass density,"[1]; 318.15 K, x1 = 0.8419",818.8 ± 1.4 kg/m3
same,mass density,"[1]; 318.15 K, x1 = 0.8854",832.2 ± 1.4 kg/m3
same,mass density,"[1]; 318.15 K, x1 = 0.9305",846.4 ± 1.5 kg/m3
same,mass density,"[1]; 318.15 K, x1 = 1",869.6 ± 0.69 kg/m3
same,mass density,"[1]; 328.15 K, x1 = 0.0433",633.2 ± 0.78 kg/m3
same,mass density,"[1]; 328.15 K, x1 = 0.0847",639.6 ± 0.82 kg/m3
same,mass density,"[1]; 328.15 K, x1 = 0.1691",653.4 ± 0.85 kg/m3
same,mass density,"[1]; 328.15 K, x1 = 0.2349",664.88 ± 0.88 kg/m3
same,mass density,"[1]; 328.15 K, x1 = 0.307",678 ± 0.92 kg/m3
same,mass density,"[1]; 328.15 K, x1 = 0.3708",690.6 ± 0.97 kg/m3
same,mass density,"[1]; 328.15 K, x1 = 0.4318",703.25 ± 1 kg/m3
same,mass density,"[1]; 328.15 K, x1 = 0.4918",716.3 ± 1.1 kg/m3
same,mass density,"[1]; 328.15 K, x1 = 0.5567",731.2 ± 1.1 kg/m3
same,mass density,"[1]; 328.15 K, x1 = 0.6075",743.4 ± 1.1 kg/m3
same,mass density,"[1]; 328.15 K, x1 = 0.6523",754.6 ± 1.2 kg/m3
same,mass density,"[1]; 328.15 K, x1 = 0.7238",773.4 ± 1.2 kg/m3
same,mass density,"[1]; 328.15 K, x1 = 0.7577",782.7 ± 1.3 kg/m3
same,mass density,"[1]; 328.15 K, x1 = 0.8221",800.9 ± 1.3 kg/m3
same,mass density,"[1]; 328.15 K, x1 = 0.8723",815.8 ± 1.4 kg/m3
same,mass density,"[1]; 328.15 K, x1 = 0.9135",828.6 ± 1.4 kg/m3
same,mass density,"[1]; 328.15 K, x1 = 0.9832",851.3 ± 1.6 kg/m3
same,mass density,"[1]; 328.15 K, x1 = 1",857.17 ± 0.68 kg/m3
same,excess molar enthalpy,"[2]; 291.15 K, x1 = 0.0535",0.0674 ± 0.00167 kcal/mol
same,excess molar enthalpy,"[2]; 291.15 K, x1 = 0.1148",0.139 ± 0.00311 kcal/mol
same,excess molar enthalpy,"[2]; 291.15 K, x1 = 0.1974",0.215 ± 0.00454 kcal/mol
same,excess molar enthalpy,"[2]; 291.15 K, x1 = 0.2736",0.275 ± 0.00598 kcal/mol
same,excess molar enthalpy,"[2]; 291.15 K, x1 = 0.3368",0.309 ± 0.00669 kcal/mol
same,excess molar enthalpy,"[2]; 291.15 K, x1 = 0.3855",0.33 ± 0.00717 kcal/mol
same,excess molar enthalpy,"[2]; 291.15 K, x1 = 0.4401",0.344 ± 0.00741 kcal/mol
same,excess molar enthalpy,"[2]; 291.15 K, x1 = 0.4918",0.348 ± 0.00741 kcal/mol
same,excess molar enthalpy,"[2]; 291.15 K, x1 = 0.5333",0.345 ± 0.00741 kcal/mol
same,excess molar enthalpy,"[2]; 291.15 K, x1 = 0.5714",0.341 ± 0.00717 kcal/mol
same,excess molar enthalpy,"[2]; 291.15 K, x1 = 0.6212",0.329 ± 0.00693 kcal/mol
same,excess molar enthalpy,"[2]; 291.15 K, x1 = 0.6753",0.309 ± 0.00669 kcal/mol
same,excess molar enthalpy,"[2]; 291.15 K, x1 = 0.722",0.282 ± 0.00598 kcal/mol
same,excess molar enthalpy,"[2]; 291.15 K, x1 = 0.7805",0.247 ± 0.00526 kcal/mol
same,excess molar enthalpy,"[2]; 291.15 K, x1 = 0.8412",0.199 ± 0.0043 kcal/mol
same,excess molar enthalpy,"[2]; 291.15 K, x1 = 0.8816",0.153 ± 0.00335 kcal/mol
same,excess molar enthalpy,"[2]; 291.15 K, x1 = 0.9343",0.0937 ± 0.00215 kcal/mol
same,excess molar enthalpy,"[2]; 291.15 K, x1 = 0.9802",0.0349 ± 0.000956 kcal/mol
same,excess molar enthalpy,"[2]; 298.15 K, x1 = 0.0668",0.0865 ± 0.00191 kcal/mol
same,excess molar enthalpy,"[2]; 298.15 K, x1 = 0.1168",0.137 ± 0.00311 kcal/mol
same,excess molar enthalpy,"[2]; 298.15 K, x1 = 0.192",0.21 ± 0.00454 kcal/mol
same,excess molar enthalpy,"[2]; 298.15 K, x1 = 0.2621",0.261 ± 0.0055 kcal/mol
same,excess molar enthalpy,"[2]; 298.15 K, x1 = 0.3186",0.289 ± 0.00621 kcal/mol
same,excess molar enthalpy,"[2]; 298.15 K, x1 = 0.3929",0.319 ± 0.00693 kcal/mol
same,excess molar enthalpy,"[2]; 298.15 K, x1 = 0.439",0.329 ± 0.00693 kcal/mol
same,excess molar enthalpy,"[2]; 298.15 K, x1 = 0.495",0.326 ± 0.00693 kcal/mol
same,excess molar enthalpy,"[2]; 298.15 K, x1 = 0.5309",0.324 ± 0.00693 kcal/mol
same,excess molar enthalpy,"[2]; 298.15 K, x1 = 0.5767",0.315 ± 0.00669 kcal/mol
same,excess molar enthalpy,"[2]; 298.15 K, x1 = 0.6196",0.304 ± 0.00645 kcal/mol
same,excess molar enthalpy,"[2]; 298.15 K, x1 = 0.6757",0.286 ± 0.00621 kcal/mol
same,excess molar enthalpy,"[2]; 298.15 K, x1 = 0.7368",0.255 ± 0.0055 kcal/mol
same,excess molar enthalpy,"[2]; 298.15 K, x1 = 0.7954",0.215 ± 0.00454 kcal/mol
same,excess molar enthalpy,"[2]; 298.15 K, x1 = 0.8424",0.17 ± 0.00359 kcal/mol
same,excess molar enthalpy,"[2]; 298.15 K, x1 = 0.8998",0.117 ± 0.00263 kcal/mol
same,excess molar enthalpy,"[2]; 298.15 K, x1 = 0.9521",0.0605 ± 0.00143 kcal/mol
same,excess molar enthalpy,"[2]; 318.15 K, x1 = 0.076",0.11 ± 0.00239 kcal/mol
same,excess molar enthalpy,"[2]; 318.15 K, x1 = 0.1524",0.195 ± 0.0043 kcal/mol
same,excess molar enthalpy,"[2]; 318.15 K, x1 = 0.2306",0.259 ± 0.0055 kcal/mol
same,excess molar enthalpy,"[2]; 318.15 K, x1 = 0.3029",0.3 ± 0.00645 kcal/mol
same,excess molar enthalpy,"[2]; 318.15 K, x1 = 0.3659",0.325 ± 0.00693 kcal/mol
same,excess molar enthalpy,"[2]; 318.15 K, x1 = 0.4345",0.339 ± 0.00717 kcal/mol
same,excess molar enthalpy,"[2]; 318.15 K, x1 = 0.488",0.338 ± 0.00717 kcal/mol
same,excess molar enthalpy,"[2]; 318.15 K, x1 = 0.5143",0.335 ± 0.00717 kcal/mol
same,excess molar enthalpy,"[2]; 318.15 K, x1 = 0.5368",0.333 ± 0.00717 kcal/mol
same,excess molar enthalpy,"[2]; 318.15 K, x1 = 0.5617",0.331 ± 0.00717 kcal/mol
same,excess molar enthalpy,"[2]; 318.15 K, x1 = 0.6098",0.32 ± 0.00693 kcal/mol
same,excess molar enthalpy,"[2]; 318.15 K, x1 = 0.6645",0.301 ± 0.00645 kcal/mol
same,excess molar enthalpy,"[2]; 318.15 K, x1 = 0.7202",0.273 ± 0.00598 kcal/mol
same,excess molar enthalpy,"[2]; 318.15 K, x1 = 0.7788",0.235 ± 0.00502 kcal/mol
same,excess molar enthalpy,"[2]; 318.15 K, x1 = 0.8406",0.184 ± 0.00406 kcal/mol
same,excess molar enthalpy,"[2]; 318.15 K, x1 = 0.9004",0.125 ± 0.00263 kcal/mol
same,excess molar enthalpy,"[2]; 318.15 K, x1 = 0.9547",0.0638 ± 0.00143 kcal/mol

# — the NIST ThermoML archive (doi:10.1021/je100832h)
